In patent US6906175B2, “Production of adenine nucleotide translocator (ANT), novel ANT ligands and screening assays therefor” (priority 1998, dated 2005):

Assays:
[1] = target: T1, bovine mitochondria (ANT) (Bos taurus, UniProt P02722); assay: 125I-compound 24 competition binding (Tube Assay), beef heart mitochondria
T1 construct: from tissue; host or cells: bovine heart mitochondria
T1 sequence (P02722 2-298 limits assumed): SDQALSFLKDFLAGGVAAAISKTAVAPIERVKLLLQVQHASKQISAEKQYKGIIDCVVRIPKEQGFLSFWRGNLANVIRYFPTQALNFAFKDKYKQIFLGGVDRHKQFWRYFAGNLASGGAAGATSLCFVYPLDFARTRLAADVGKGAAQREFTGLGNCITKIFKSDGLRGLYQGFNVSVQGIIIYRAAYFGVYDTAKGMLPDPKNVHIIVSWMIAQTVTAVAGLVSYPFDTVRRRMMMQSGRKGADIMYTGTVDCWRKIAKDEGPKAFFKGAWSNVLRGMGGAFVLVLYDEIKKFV
Protocol: Bovine mitochondria were prepared as follows: Essentially all of the fat and cholesterol […] was removed from two bovine hearts which were then cut into 1-inch cubes. The cubes were ground in a meat grinder using the fine setting. Three hundred (300) […] portions of the ground heart were weighed out and, to each was added 400 ml of Isolation Buffer (IB; 250 mM sucrose, 1 mM sodium succinate, 0.2 mM K^+EDTA, 10 mM Tris-base, pH 7.8). (All buffers were filter sterilized, and column buffers were degassed, and, unless otherwise noted, all steps were carried out at 0 to 4° C. on ice or in pre-cooled rotors and centrifuges.) The preparations were mixed in a blender two times for 15 seconds on high setting and, in between and after blends, the pH was adjusted to 7.8 with 2M Tris-base. The homogenate was centrifuged for 20 minutes at 1,200×g, and the supernatant was poured through two layers of cheese cloth and adjusted to pH 7.8 with 2M Tris-base. The supernatant was then centrifuged for 30 minutes at […]. The supernatant was decanted, and the buff-colored outer pellet was dislodged with about 10 ml of IB and discarded. The brown inner pellet (heavy mitochondria) was resuspended in IB (about 10 ml per pellet). The pellets were homogenized in a glass-teflon homogenizer (2 passes at high drill speed). Samples were combined and centrifuged for 30 minutes at 11,000×g. The supernatant was decanted, and the pellets were resuspended in 60 ml of IB per 900 gm of ground heart. This centrifugation step was repeated and the pellets were finally resuspended in IB (60 ml per 900 gm of ground heart). One kilogram of beef heart typically yields about one (1) gram of mitochondria
The mitochondrial preparations were divided into aliquots (typically, 50μl for T. ni mitochondria or 20 μl for bovine mitochondria) and then either used directly in assays or flash frozen and stored at −80° C. The total protein content in the mitochondrial preparations was determined using the enhanced protocol (30 minutes at 60° C.; see http://www.ruf.rice.edu/˜bioslabs/methods/protein/BCA.html) of the bicinchoninic acid (BCA) assay (available in kit form from Pierce, Rockford, Ill.).
In the “Tube Assay,” mitochondria (from about 1 to 10 μg of total protein) were resuspended in 100 μl of Tris-KCl buffer with 0.1% BSA, pH 7.4. ^125I-labeled compound 24 (Example 11) was added to a final concentration of 0.5 nM. When used, competitors were added at these concentration ranges: unlabeled atractyloside or compound 24 final concentration from 5 nM to 10 μM; unlabeled ADP (a lower affinity competitor) was added at a final concentration of 500 nM to 1 mM.
The reaction mixes were incubated on ice for 60 minutes and then pelleted by centrifugation (approximately 16,000×g) for 11 minutes at 4° C.
Unbound ^125I-compound 24 was removed by aspiration. The pellets were contact-washed with Tris-KCl buffer, pH 7.4, and recentrifuged. The resultant pellets were aspirated and the radioactivity (dpm) in each was determined by gamma counting.

[2] = target: T2, GST-huANT3 recombinantly produced in E. coli (membranes) (Homo sapiens, UniProt P12236); assay: Saturation binding of [32P]ATP to E. coli membranes, huANT3-producing cells; conditions: atractyloside 10μM added to the assay
T2 construct: Gly-Ser-Pro-Gly-Ile-Leu-Met, where “Met” indicates the amino acid encoded by the translation initiation codon of huANT3; made in house; host or cells: E. coli (crude membrane preparation)
T2 sequence (P12236 1-298): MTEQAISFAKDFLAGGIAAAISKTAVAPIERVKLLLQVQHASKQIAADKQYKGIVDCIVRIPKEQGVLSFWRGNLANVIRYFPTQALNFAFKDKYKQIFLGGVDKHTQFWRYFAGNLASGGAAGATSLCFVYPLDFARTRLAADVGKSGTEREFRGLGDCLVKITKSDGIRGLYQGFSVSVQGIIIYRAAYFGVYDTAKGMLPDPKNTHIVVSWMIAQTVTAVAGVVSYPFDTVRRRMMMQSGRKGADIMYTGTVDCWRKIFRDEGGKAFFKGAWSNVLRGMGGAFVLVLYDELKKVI
Protocol: Following arabinose induction, transformed or sham transformed (vector only) E coli were collected by centrifugation at 2000 g for 10 min. The bacterial pellets were resuspended in MSB, to which lysozyme (100 μg/ml) was added. After 20 min at room temperature, the lysates were subjected to one freeze-thaw cycle followed by sonication as described above. The resultant membrane preparation was used for binding assays.
[…] The membranes with bound ATP were sedimented by centrifugation at 5000 g for 5 min, and washed once with binding buffer. Membrane pellets were then mixed with 5 ml scintillation cocktail and counted.

Sf9/huANT3 mitochondria = target: T3, Sf9/huANT3 mitochondria (Homo sapiens, UniProt P12236); assay: Homologous competition of [32P]ATP binding to Sf9/huANT3 mitochondria; conditions: FIG. 8
T3 construct: expressed in transfected cells; host or cells: Spodoptera frugiperda Sf9 cells infected with recombinant baculovirus; isolated mitochondria
T3 sequence (P12236 1-298): T2 sequence (P12236 1-298)
Protocol: To estimate maximal binding and the extent of overexpression of the huANT3, 25 μg of membrane protein was incubated with varying amounts of [^32P]ATP (1-500 μM) in binding buffer (120 mM KCl, 10 mM Tris, 1 mM EDTA, pH 7.4) for 2 hr at room temperature. The membranes with bound ATP were sedimented by centrifugation at 5000 g for 5 min, and washed once with binding buffer. Membrane pellets were then mixed with 5 ml scintillation cocktail and counted.
Sf9 cells expressing huANT3 were grown in spinner flasks. The cells were harvested by centrifugation at 2,000 g for 5 min. The cell pellet was resuspended in MSB and subjected to 3 freeze-thaw cycles. Cell membranes and debris were removed by centrifugation at 600 g for 5 min; mitochondria were collected by centrifuging the supernatant at 20,000 g for 15 min. The mitochondrial pellets were suspended in MSB, and used for binding assays as described above. Homologous competition of [^32P]ATP binding was performed using 25 μg mitochondrial protein per assay.

## C=C1[C@@H]2CCC3[C@@](CC[C@@H]4[C@H](C(=O)O)C[C@@H](O[C@@H]5O[C@H](CO)[C@@H](OS(=O)(=O)[O-])[C@H](OS(=O)(=O)[O-])[C@H]5OC(=O)CC(C)C)C[C@@]34C)(C2)[C@@H]1O.[K+].[K+] (some centres unmarked) [ATR, atractyloside]
[1]; 0.5 nM 125I-compound 24, FIG. 17, read-out: IC50, competitive inhibition of 125I-compound 24 binding
  IC50: ~44 nM
[1]; 1 μg protein/tube, FIG. 13
  affinity relative to the low affinity ANT ligand ADP: about 1,000 fold
[1]; FIGS. 11, 13, 16
  competitive inhibition of 125I-compound 24 binding (in words): slightly higher affinity than compound 24
[2]
  effect on ATP binding: abolished
Sf9/huANT3 mitochondria
  displacement of ATP binding: displaced by low concentrations of atractyloside
